Source: patent publication US6670364B2, “Antagonists of MCP-1 function and methods of use thereof” (Telik, Inc., priority 2001, dated 2003)
Where a name gives a salt, the structure may show the parent alone.

These molecules were tested on ICR male mice (assay: Thioglycollate-induced inflammation model (Example 18)). Settings: 2 mg/kg s.c., repeated immediately after broth injection and 3 h later; peritoneal cavity at 72 h; mouse.
Type: in vivo
Description: 3% Brewer's thioglycollate broth (Difco, Detroit, Mich.) was injected into the peritoneal cavity of ICR male mice, followed by subcutaneous administration of the test compound. The same dose of test compound was again administered immediately after the broth injection and 3 h later. After 72 h, the number of total elicited cells and MOMA2-positive cells in the peritoneal cavity was analyzed using an EPICS XL Beckman Coulter.

Row | Molecule | MOMA2-positive Cells (× 10^6) | Total Cells (× 10^6)
1 | Cc1nn(C)c2ncc(C(=O)NC(=O)Nc3ccc(C(=O)N4CCN(C)CC4)c(Cl)c3)c(N3CCN(C)CC3)c12 [Compound 97] | 4.1 ± 0.3 × 10^6 | 6.4 ± 0.6 × 10^6

Same assay, conditions: 10 mg/kg s.c., repeated immediately after broth injection and 3 h later; peritoneal cavity at 72 h; mouse

Row | Molecule | MOMA2-positive Cells (× 10^6) | Total Cells (× 10^6)
2 | Cc1nn(C)c2nc(N(C)CCN(C)C)c(C(=O)NC(=O)Nc3ccc(F)c(C(F)(F)F)c3)cc12 [Compound 116, (6-{[2-(Dimethylamino)ethyl]methylamino}-1,3-dimethylpyrazolo[5,4-b]-pyridin-5-yl)-N-({[4-fluoro-3-(trifluoromethyl)phenyl]amino}carbonyl)-carboxamide hydrochloride] | 3.0 ± 0.8 × 10^6 | 4.2 ± 1.1 × 10^6
3 | Cc1nn(C)c2nc(N(C)CCN(C)C)c(C(=O)NC(=O)Nc3cccc(OC(C)C)c3)cc12 [Compound 140] | 5.2 ± 0.6 × 10^6 | 7.3 ± 1.1 × 10^6

What follows are molecules tested on female Lewis rats (assay: Collagen-induced arthritis model in rat, p.o. (Example 24)). Settings: 2 mg/kg p.o. twice a day from day 0.
Type: in vivo
Description: Collagen-induced arthritis was induced in female Lewis rats as follows. Rats were injected subcutaneously with the emulsion of bovine collagen type 11 (3.3 mg/kg at day 0 and 1.67 mg/kg at day 7) and complete Freund's adjuvant (CFA) at the base of the tail at day 0 and immunized additionally at day 7. The test compounds were administered p.o. at day 0 and then twice a day for 21 days or 3 times a week until day 21 was also administered p.o. from day 13 to day 21 in another group. Paw swelling was measured by the increased volume of the legs using a plethysmometer.

Row | Molecule | Percent Swelling day 14 [%] | Percent Swelling day 21 [%]
4 | Cc1nn(C)c2nc(N(C)CCN(C)C)c(C(=O)NC(=O)Nc3cccc(OC(C)C)c3)cc12 [Compound 140] | 14.2 ± 3.3 | 49.2 ± 14.1

Same assay, conditions: 10 mg/kg p.o. from day 13 to day 21

Row | Molecule | Percent Swelling day 14 [%] | Percent Swelling day 21 [%]
5 | Cc1nn(C)c2nc(N(C)CCN(C)C)c(C(=O)NC(=O)Nc3cccc(OC(C)C)c3)cc12 [Compound 140] | 10.1 ± 1.6 | 73.5 ± 6.3

Same assay, conditions: 10 mg/kg p.o. twice a day from day 0

Row | Molecule | Percent Swelling day 14 [%] | Percent Swelling day 21 [%]
6 | Cc1nn(C)c2nc(N(C)CCN(C)C)c(C(=O)NC(=O)Nc3cccc(OC(C)C)c3)cc12 [Compound 140] | 7.5 ± 1.0 | 28.0 ± 6.4

These molecules were tested against hMCP-1 (Homo sapiens, UniProt P13500) (assay: Inhibition of MCP-1-induced chemotaxis (48-well chamber, Example 21)). Settings: THP-1 cells, 2.5 nM hMCP-1, 48-well chamber, 2 hr.
Type: cell-based
Set-up: purchased PeproTech
Description: A 48-well microchemotaxis chamber with a 5 μm-pore size, PVP-coated polycarbonate filter membrane (Neuro Probe Inc., Cabin John, Md.) was used for testing. Compounds were prepared as 10 mM stock solution in DMSO. THP-1 cells were washed with RPMI 1640 medium supplemented with 0.5% BSA and 25 mM HEPES, pH 7.4, and suspended at a density of 4×10^6 cells/mL in the same medium. A 150 μL aliquot of this suspension was treated with an equal volume of test compound solution and the mixture incubated at 37° C. for 15 min. The lower chamber was loaded with 26 μL of a 2.5 nM solution of hMCP-1 (PeproTech) in medium. The filter membrane was placed over the lower chamber, followed by a silicon rubber gasket and the upper chamber. A 50 μL aliquot of the THP-1 cell suspension containing the test compound was added to the upper chamber and the assembly incubated in a 5% CO2 atmosphere at 37+ C. for 2 hr. The chamber was then disassembled and the cells remaining on the upper surface of the filter were scrapped off with a rubber scrapper. The filter was fixed with methanol, stained with Diff-Quik solution, and mounted on a slide glass. The cells that had migrated across the filter onto the lower surface were then counted by microscopic observation.

hMCP-1, sequence (P13500 24-99): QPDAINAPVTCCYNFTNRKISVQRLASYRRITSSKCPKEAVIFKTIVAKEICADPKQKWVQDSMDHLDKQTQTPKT

Row | Molecule | IC50 [µM]
7 | Cc1nn(C)c2ncc(C(=O)NC(=O)Nc3ccc(F)c(C(F)(F)F)c3)c(O)c12 [Compound 43, N-({[4-fluoro-3-(trifluoromethyl)phenyl]amino}carbonyl)(4-hydroxy-1,3-dimethylpyrazolo[5,4-b]pyridin-5-yl)carboxamide] | 7.7
8 | Cc1nn(C)c2ncc(C(=O)NC(=O)Nc3ccc(F)c(C(F)(F)F)c3)c(N(C)C)c12 [Compound 44, [4-(Dimethylamino)-1,3-dimethylpyrazolo[5,4-b]pyridin-5-yl]-N-({[4-fluoro-3-(trifluoromethyl)phenyl]amino}carbonyl)carboxamide] | 8.2
9 | Cc1nn(C)c2ncc(C(=O)NC(=O)Nc3ccc(F)c(C(F)(F)F)c3)c(NCCN(C)C)c12 [Compound 46, (4-{[2-(Dimethylamino)ethyl]amino}-1,3-dimethylpyrazolo[5,4-b]pyridin-5-yl)-N-({[4-fluoro-3-(trifluoromethyl)phenyl]amino}carbonyl)carboxamide hydrochloride] | 2
10 | Cc1nn(C)c2ncc(C(=O)NC(=O)Nc3ccc(F)c(C(F)(F)F)c3)c(N(CCO)CCO)c12 [Compound 51, {4-[Bis(2-hydroxyethyl)amino]-1,3-dimethylpyrazolo[5,4-b]pyridin-5-yl}-N-({[4-fluoro-3-(trifluoromethyl)phenyl]amino}carbonyl)carboxamide] | 1.6
11 | Cc1nn(C)c2ncc(C(=O)NC(=O)Nc3ccc(F)c(C(F)(F)F)c3)c(NCCC34CCCN3CCC4)c12 [Compound 60, {1,3-Dimethyl-4-[(2-perhydropyrrolizin-7a-ylethyl)amino]pyrazolo[5,4-b]pyridin-5-yl}-N-({[4-fluoro-3-(trifluoromethyl)phenyl]amino}carbonyl)carboxamide hydrochloride] | 1.2
12 | Cc1nn(C)c2ncc(C(=O)NC(=O)Nc3ccc(F)c(C(F)(F)F)c3)c(NCc3ccccc3)c12 [Compound 61] | 20
13 | Cc1nn(C)c2ncc(C(=O)NC(=O)Nc3ccc(F)c(C(F)(F)F)c3)c(N3CCCCC3)c12 [Compound 64, (1,3-Dimethyl-4-piperidylpyrazolo[5,4-b]pyridin-5-yl)-N-({[4-fluoro-3-(trifluoromethyl)-phenyl]amino}carbonyl)carboxamide] | 2
14 | Cc1nn(C)c2ncc(C(=O)NC(=O)Nc3ccc(F)c(C(F)(F)F)c3)c(N3CCOCC3)c12 [Compound 65, (1,3-Dimethyl-4-morpholin-4-ylpyrazolo[5,4-b]pyridin-5-yl)-N-({[4-fluoro 3-(trifluoromethyl)phenyl]amino}carbonyl)carboxamide] | 10
15 | Cc1nn(C)c2ncc(C(=O)NC(=O)Nc3ccc(F)c(C(F)(F)F)c3)c(N3CCNCC3)c12 [Compound 67] | 1.8
16 | Cc1nn(C)c2ncc(C(=O)NC(=O)Nc3cccc(Cl)c3)c(N3CCN(C)CC3)c12 [Compound 68] | 4
17 | Cc1nn(C)c2ncc(C(=O)NC(=O)Nc3cccc(Br)c3)c(N3CCN(C)CC3)c12 [Compound 69] | 4
18 | Cc1nn(C)c2ncc(C(=O)NC(=O)Nc3ccc(Cl)cc3)c(N3CCN(C)CC3)c12 [Compound 70] | 4
19 | Cc1nn(C)c2ncc(C(=O)NC(=O)Nc3ccc(Cl)c(Cl)c3)c(N3CCN(C)CC3)c12 [Compound 71] | 4
20 | Cc1nn(C)c2ncc(C(=O)NC(=O)Nc3cccc(C(F)(F)F)c3)c(N3CCN(C)CC3)c12 [Compound 72] | 3.6
21 | Cc1nn(C)c2ncc(C(=O)NC(=O)Nc3cccc(C(F)(F)F)c3)c(N3CCN(C)CC3)c12 [Compound 73] | 1.7
22 | Cc1nn(C)c2ncc(C(=O)NC(=O)Nc3cccc(C(C)C)c3)c(N3CCN(C)CC3)c12 [Compound 74] | 4
23 | Cc1nn(C)c2ncc(C(=O)NC(=O)Nc3cccc(OC(C)C)c3)c(N3CCN(C)CC3)c12 [Compound 75] | 0.7

Row | Molecule | IC50 [µM]
24 | Cc1nn(C)c2ncc(C(=O)NC(=O)Nc3ccc(C(=O)O)c(OC(C)C)c3)c(N3CCN(C)CC3)c12 [Compound 76] | 4
25 | Cc1nn(C)c2ncc(C(=O)NC(=O)Nc3cccc(OC(F)(F)F)c3)c(N3CCN(C)CC3)c12 [Compound 77] | 0.7
26 | Cc1nn(C)c2ncc(C(=O)NC(=O)Nc3cccc(-c4nccs4)c3)c(N3CCN(C)CC3)c12 [Compound 78] | 0.9
27 | Cc1nn(C)c2ncc(C(=O)NC(=O)Nc3cccc(-c4ccccc4)c3)c(N3CCN(C)CC3)c12 [Compound 80] | 4
28 | Cc1ccc(NC(=O)NC(=O)c2cnc3c(c(C)nn3C)c2N2CCN(C)CC2)cc1C(F)(F)F [Compound 83] | 4
29 | Cc1nn(C)c2ncc(C(=O)NC(=O)Nc3ccc(O)c(C(F)(F)F)c3)c(N3CCN(C)CC3)c12 [Compound 87] | 4
30 | Cc1nn(C)c2ncc(C(=O)NC(=O)Nc3cc(O)cc(C(F)(F)F)c3)c(N3CCN(C)CC3)c12 [Compound 89] | 4
31 | Cc1nn(C)c2ncc(C(=O)NC(=O)Nc3cc(C(F)(F)F)cc(C(F)(F)F)c3)c(N3CCN(C)CC3)c12 [Compound 91] | 3
32 | Cc1nn(C)c2ncc(C(=O)NC(=O)Nc3ccc(Cl)c(C(=O)OC(C)C)c3)c(N3CCN(C)CC3)c12 [Compound 92] | 2.1
33 | Cc1nn(C)c2ncc(C(=O)NC(=O)Nc3ccc(C(=O)N4CCOCC4)c(Cl)c3)c(N3CCN(C)CC3)c12 [Compound 94] | 1.2
34 | Cc1nn(C)c2ncc(C(=O)NC(=O)Nc3ccc(Cl)c(C(=O)N4CCOCC4)c3)c(N3CCN(C)CC3)c12 [Compound 95] | 1.9
35 | Cc1nn(C)c2ncc(C(=O)NC(=O)Nc3ccc(C(=O)N4CCN(C)CC4)c(Cl)c3)c(N3CCN(C)CC3)c12 [Compound 97] | 1.1
36 | Cc1nn(C)c2ncc(C(=O)NC(=O)Nc3ccc(F)c(C(F)(F)F)c3)c(N3CCN(c4ccccc4)CC3)c12 [Compound 103, [1,3-Dimethyl-4-(4-phenylpiperazinyl)pyrazolo[5,4-b]pyridin-5-yl]-N-({[4-fluoro-3-(trifluoromethyl)phenyl]amino}carbonyl)carboxamide] | 2
37 | Cc1nn(C)c2ncc(C(=O)NC(=O)Nc3ccc(F)c(C(F)(F)F)c3)c(-[n+]3ccc(N)cc3)c12 [Compound 106, 4-Amino-1-{5-[N-({[4-fluoro-3-(trifluoromethyl)phenyl]amino}carbonyl)carbamoyl]-1,3-dimethylpyrazolo[5,4-b]pyridin-4-yl}pyridinium chloride] | 0.4
38 | Cc1nn(C)c2ncc(C(=O)NC(=O)Nc3ccc(F)c(C(F)(F)F)c3)c(N3CCCN(C)CC3)c12 [Compound 108, [1,3-Dimethyl-4-(4-methyl(1,4-diazaperhydroepinyl))pyrazolo[5,4-b]pyridin-5-yl]-N-({[4-fluoro-3-(trifluoromethyl)phenyl]amino}carbonyl)carboxamide hydrochloride] | 2
39 | [4-(4-Ethylpiperazinyl)-1,3-dimethylpyrazolo[5,4-b]pyridin-5-yl]-N-({[4-fluoro-3-(trifluoromethyl)phenyl]amino}carbonyl)carboxamide hydrochloride [Compound 100] | 0.38
